From patent publication US20260070945A1, “MACROCYCLIC IMMUNOMODULATORS” (Bristol-Myers Squibb Company, priority 2022, published 2026)
*1 amine or outer side, *2 acyl side, *3 side chain or, on linkers, in order; H or OH if unused. Where a SMILES comes first, the peptide text is derived from it. Bridges are numbered along the chain shown (N, C = ends). [ ]: non-standard residue; d: D form. The star is where a group is joined. ξ: configuration not given here. Phe(4-COOH) = N[C@@H](Cc1ccc(C(=O)O)cc1)C(=O)O; d(γGlu) = O=C(O)[C@@H](CCC(=O)[*:2])N[*:1]; Bip = N[C@@H](Cc1ccc(-c2ccccc2)cc1)C(=O)O; NH(CH2)14COOH = O=C(O)CCCCCCCCCCCCCCN*; Phe(3-Me) = Cc1cccc(C[C@H](N)C(=O)O)c1; γGlu = O=C(O)[C@H](CCC(=O)[*:2])N[*:1]; NH(CH2)12COOH = O=C(O)CCCCCCCCCCCCN*; Val(3-OH) = CC(C)(O)[C@H](N)C(=O)O; hArg = N=C(N)NCCCC[C@H](N)C(=O)O; 4Pal = N[C@@H](Cc1ccncc1)C(=O)O; NMeQ = CN[C@@H](CCC(N)=O)C(=O)O; Cha = N[C@@H](CC1CCCCC1)C(=O)O; Gly(cPr) = N[C@H](C(=O)O)C1CC1; Ile(3ξ) = CCC(C)[C@H](N)C(=O)O; Thr(3ξ) = CC(O)[C@H](N)C(=O)O; 12Ado = NCCCCCCCCCCCC(=O)O; dDab = NCC[C@@H](N)C(=O)O; Carboxymethyl = O=C(O)C*; NMeA = CN[C@@H](C)C(=O)O; Orn = NCCC[C@H](N)C(=O)O; Aun = NCCCCCCCCCCC(=O)O; Dab = NCC[C@H](N)C(=O)O; AEEA = NCCOCCOCC(=O)O

Each compound was assayed against T1, PD-1/PD-L1 interaction (PE-labeled human PD-L1-Ig binding to Jurkat cell line over-expressing human PD-1) (Homo sapiens, UniProt Q15116) (assay: Jurkat-PD-1 Cell Binding High-Content Screening Assay (CBA)). Settings: Jurkat-hPD-1 cells, PE-labeled PD-L1-Ig 20 nM final; read-out: Jurkat HPD1 PDL1 IC50.
T1 construct: expressed in transfected cells; host or cells: Jurkat
T1 sequence (Q15116 25-288): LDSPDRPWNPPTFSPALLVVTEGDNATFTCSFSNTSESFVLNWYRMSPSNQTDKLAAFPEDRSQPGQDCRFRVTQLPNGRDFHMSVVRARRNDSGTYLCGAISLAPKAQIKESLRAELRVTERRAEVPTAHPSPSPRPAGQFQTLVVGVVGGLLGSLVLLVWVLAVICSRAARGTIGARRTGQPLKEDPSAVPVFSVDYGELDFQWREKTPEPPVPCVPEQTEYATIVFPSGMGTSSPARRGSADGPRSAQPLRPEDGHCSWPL
Procedure, shortened: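 Jurkat-hPD-1 cells (8×10^3/well) in DMEM with 10% fetal calf serum were preincubated with compound for 2 h at 37 °C. PE-labeled PD-L1-Ig was then added at 20 nM final for 1 h. Cells were fixed in paraformaldehyde with Hoechst 33342, washed and imaged by high-content imaging.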
`Cc1cccc(C[C@@H]2NC(=O)[C@H](CC(=O)O)NC(=O)[C@H](Cc3ccc(C(=O)O)cc3)NC(=O)[C@H](CCN)NC(=O)CSC[C@@H](C(=O)N[C@@H](CCN)C(=O)NCCCCCCCCCCC(=O)O)NC(=O)[C@H](CO)NC(=O)[C@H](C(C)(C)O)NC(=O)[C@H](CC3CCCCC3)NC(=O)[C@H](CCN)NC(=O)[C@@H](CC(C)C)NC(=O)[C@H](C)N(C)C(=O)[C@H](Cc3ccc(OCC(=O)O)cc3)NC(=O)[C@H](Cc3ccc(-c4ccccc4)cc3)NC(=O)[C@H](C3CC3)NC2=O)c1` [Example 1295] ({CH2CO}-[Dab][Phe(4-COOH)]D[Phe(3-Me)][Gly(cPr)][Bip]Y(Carboxymethyl)[NMeA][dL][Dab][Cha][Val(3-OH)]SC[Dab][Aun]-OH; thioether N-14) showed an IC50 of 0.0112 µM. Compound `CC(C)C[C@@H]1NC(=O)[C@H](Cc2c[nH]c3ccccc23)NC(=O)[C@H](CC(=O)O)NC(=O)[C@H](Cc2ccncc2)NC(=O)[C@H](Cc2ccc(OCC(=O)O)cc2)NC(=O)CSC[C@@H](C(=O)N[C@@H](Cc2c[nH]cn2)C(=O)NCCCCCCCCCCC(=O)O)NC(=O)[C@H](CO)NC(=O)[C@H](C(C)C)NC(=O)[C@H](CC2CCCCC2)NC(=O)[C@H](CCN)NC(=O)[C@@H](CC(C)C)NC(=O)[C@H](C)N(C)C(=O)[C@H](C(C)C)NC(=O)[C@H](Cc2ccc(-c3ccccc3)cc2)NC1=O` [Example 1087] ({CH2CO}-Y(Carboxymethyl)[4Pal]DWL[Bip]V[NMeA][dL][Dab][Cha]VSCH[Aun]-OH; thioether N-14) has an IC50 of 0.0332 µM. With `CC(C)C[C@H]1NC(=O)[C@H](C)N(C)C(=O)[C@H](C(C)C)NC(=O)[C@H](Cc2ccc(-c3ccccc3)cc2)NC(=O)[C@H](C(C)C)NC(=O)[C@H](Cc2c[nH]c3ccccc23)NC(=O)[C@H](CC(=O)O)NC(=O)[C@H](Cc2ccc(C(=O)O)cc2)NC(=O)[C@H](Cc2ccc(OCC(=O)O)cc2)NC(=O)CSC[C@@H](C(=O)N[C@@H](CCCCN)C(=O)NCCOCCOCC(=O)NCCCCCCCCCCC(=O)O)NC(=O)[C@H](CO)NC(=O)[C@H](C(C)C)NC(=O)[C@H](CC2CCCCC2)NC(=O)[C@@H](CCN)NC1=O` [Example 2112] ({CH2CO}-Y(Carboxymethyl)[Phe(4-COOH)]DWV[Bip]V[NMeA][dL][dDab][Cha]VSCK[AEEA][Aun]-OH; thioether N-14) the IC50 was 0.0385 µM. `Cc1cccc(C[C@@H]2NC(=O)[C@H](CC(=O)O)NC(=O)[C@H](Cc3ccc(OCC(=O)O)cc3)NC(=O)[C@H](Cc3ccc(OCC(=O)O)cc3)NC(=O)CSC[C@@H](C(=O)NCCCCCCCCCCC(=O)O)NC(=O)[C@H](CCC(=O)O)NC(=O)[C@H](C(C)C)NC(=O)[C@H](CC3CCCCC3)NC(=O)[C@H](CCN)NC(=O)[C@@H](CC(C)C)NC(=O)[C@H](CCC(N)=O)N(C)C(=O)[C@H](Cc3ccc(O)cc3)NC(=O)[C@H](Cc3ccc(-c4ccccc4)cc3)NC(=O)[C@H](Cc3ccc(O)cc3)NC2=O)c1` [Example 2255] ({CH2CO}-Y(Carboxymethyl)Y(Carboxymethyl)D[Phe(3-Me)]Y[Bip]Y[NMeQ][dL][Dab][Cha]VEC[Aun]-OH; thioether N-14) was tested, and the IC50 was 0.0631 µM. In the case of `CC(C)C[C@@H]1NC(=O)[C@H](Cc2c[nH]c3ccccc23)NC(=O)[C@H](CC(=O)O)NC(=O)[C@H](Cc2ccc(C(=O)O)cc2)NC(=O)[C@H](Cc2ccc(OCC(=O)O)cc2)NC(=O)CSC[C@@H](C(=O)NCCOCCOCC(=O)NCCCCCCCCCCC(=O)O)NC(=O)[C@H](C(C)O)NC(=O)[C@H](C(C)C)NC(=O)[C@H](CC2CCCCC2)NC(=O)[C@H](CCN)NC(=O)[C@@H](CC(C)C)NC(=O)[C@H](C)N(C)C(=O)[C@H](CCC(N)=O)NC(=O)[C@H](Cc2ccc(-c3ccccc3)cc2)NC1=O` (stereo partly drawn) [Example 2285] ({CH2CO}-Y(Carboxymethyl)[Phe(4-COOH)]DWL[Bip]Q[NMeA][dL][Dab][Cha]V[Thr(3ξ)]C[AEEA][Aun]-OH; thioether N-14), the IC50 is reported as 0.0489 µM. With `CC(C)C[C@H]1NC(=O)[C@H](C)N(C)C(=O)[C@H](C(C)C)NC(=O)[C@H](Cc2ccc(-c3ccccc3)cc2)NC(=O)[C@H](C(C)C)NC(=O)[C@H](Cc2c[nH]c3ccccc23)NC(=O)[C@H](CC(=O)O)NC(=O)[C@H](Cc2ccc(C(=O)O)cc2)NC(=O)[C@H](Cc2ccncc2)NC(=O)CSC[C@@H](C(=O)N[C@@H](CCN)C(=O)NCCCCCCCCCCCCCCC(=O)O)NC(=O)[C@H](CO)NC(=O)[C@H](C(C)C)NC(=O)[C@H](CC2CCCCC2)NC(=O)[C@H](CCN)NC1=O` [Example 2004] ({CH2CO}-[4Pal][Phe(4-COOH)]DWV[Bip]V[NMeA][dL][Dab][Cha]VSC[Dab]-{NH(CH2)14COOH}; thioether N-14) the IC50 was 0.181 µM. `Cc1cccc(C[C@@H]2NC(=O)[C@H](CC(=O)O)NC(=O)[C@H](Cc3ccc(OCC(=O)O)cc3)NC(=O)[C@H](CCCCNC(=N)N)NC(=O)CSC[C@@H](C(=O)N[C@@H](CO)C(=O)NCCOCCOCC(=O)N[C@@H](CCCN)C(=O)NCCCCCCCCCCCC(=O)O)NC(=O)[C@H](CO)NC(=O)[C@H](C(C)C)NC(=O)[C@H](CC3CCCCC3)NC(=O)[C@H](CCN)NC(=O)[C@@H](CC(C)C)NC(=O)[C@H](C)N(C)C(=O)[C@H](C(C)C)NC(=O)[C@H](Cc3ccc(-c4ccccc4)cc3)NC(=O)[C@H](CC(C)C)NC2=O)c1` [Example 2122] ({CH2CO}-[hArg]Y(Carboxymethyl)D[Phe(3-Me)]L[Bip]V[NMeA][dL][Dab][Cha]VSCS[AEEA][Orn][12Ado]-OH; thioether N-14) gave an IC50 of 0.016 µM.

Same assay, conditions: PE-labeled PD-L1-Ig 20 nM final, Jurkat-hPD-1 cells; read-out: Jurkat HPD1 PDL1 IC50
`CCC(C)[C@@H]1NC(=O)[C@H](Cc2ccc(-c3ccccc3)cc2)NC(=O)[C@H](C(C)C)NC(=O)[C@H](Cc2c[nH]c3ccccc23)NC(=O)[C@H](CC(=O)O)NC(=O)[C@H](Cc2ccc(C(=O)O)cc2)NC(=O)[C@H](Cc2cnc[nH]2)NC(=O)CSC[C@@H](C(=O)N[C@@H](CCN)C(=O)NCCOCCOCC(=O)NCCCCCCCCCCCCC(=O)O)NC(=O)[C@H](CCC(=O)O)NC(=O)[C@H](C(C)(C)O)NC(=O)[C@H](CC2CCCCC2)NC(=O)[C@H](CCN)NC(=O)[C@@H](CC(C)C)NC(=O)[C@H](C)N(C)C1=O` (stereo partly drawn) [Example 2631] ({CH2CO}-H[Phe(4-COOH)]DWV[Bip][Ile(3ξ)][NMeA][dL][Dab][Cha][Val(3-OH)]EC[Dab][AEEA]-{NH(CH2)12COOH}; thioether N-14) was tested, and the IC50 was 0.0155 µM. Work on `Cc1cccc(C[C@@H]2NC(=O)[C@H](CC(=O)O)NC(=O)[C@H](Cc3ccc(OCC(=O)O)cc3)NC(=O)[C@H](C(C)O)NC(=O)CSC[C@@H](C(=O)N[C@@H](CCN)C(=O)NCCOCCOCC(=O)N[C@@H](CCC(=O)NCCOCCOCC(=O)NCCCCCCCCCCCCC(=O)O)C(=O)O)NC(=O)[C@H](CCC(=O)O)NC(=O)[C@H](C(C)C)NC(=O)[C@H](CC3CCCCC3)NC(=O)[C@H](CCN)NC(=O)[C@@H](CC(C)C)NC(=O)[C@H](C)N(C)C(=O)[C@H](Cc3ccc(OCC(=O)O)cc3)NC(=O)[C@H](Cc3ccc(-c4ccccc4)cc3)NC(=O)[C@H](Cc3ccc(OCC(=O)O)cc3)NC2=O)c1` (stereo partly drawn) [Example 2656] ({CH2CO}-[Thr(3ξ)]Y(Carboxymethyl)D[Phe(3-Me)]Y(Carboxymethyl)[Bip]Y(Carboxymethyl)[NMeA][dL][Dab][Cha]VEC[Dab][AEEA][γGlu][AEEA]-{NH(CH2)12COOH}; thioether N-14) yielded an IC50 of 0.0856 µM. `CCC(C)[C@@H]1NC(=O)[C@H](Cc2ccc(-c3ccccc3)cc2)NC(=O)[C@H](C(C)C)NC(=O)[C@H](Cc2c[nH]c3ccccc23)NC(=O)[C@H](CC(=O)O)NC(=O)[C@H](Cc2ccc(C(=O)O)cc2)NC(=O)[C@H](Cc2cnc[nH]2)NC(=O)CSC[C@@H](C(=O)N[C@@H](CCN)C(=O)NCCOCCOCC(=O)N[C@@H](CCC(=O)N[C@H](CCC(=O)NCCCCCCCCCCCCCCC(=O)O)C(=O)O)C(=O)O)NC(=O)[C@H](CCC(=O)O)NC(=O)[C@H](C(C)(C)O)NC(=O)[C@H](CC2CCCCC2)NC(=O)[C@H](CCN)NC(=O)[C@@H](CC(C)C)NC(=O)[C@H](C)N(C)C1=O` (stereo partly drawn) [Example 2634] ({CH2CO}-H[Phe(4-COOH)]DWV[Bip][Ile(3ξ)][NMeA][dL][Dab][Cha][Val(3-OH)]EC[Dab][AEEA][γGlu][d(γGlu)]-{NH(CH2)14COOH}; thioether N-14) showed an IC50 of 0.188 µM. Work on `Cc1cccc(C[C@@H]2NC(=O)[C@H](CC(=O)O)NC(=O)[C@H](Cc3ccc(C(=O)O)cc3)NC(=O)[C@H](Cc3ccncc3)NC(=O)CSC[C@@H](C(=O)N[C@@H](CCN)C(=O)NCCOCCOCC(=O)NCCOCCOCC(=O)NCCCCCCCCCCC(=O)O)NC(=O)[C@H](CCC(=O)O)NC(=O)[C@H](C(C)(C)O)NC(=O)[C@H](CC3CCCCC3)NC(=O)[C@H](CCN)NC(=O)[C@@H](CC(C)C)NC(=O)[C@H](C)N(C)C(=O)[C@H](Cc3ccc(C(=O)O)cc3)NC(=O)[C@H](Cc3ccc(-c4ccccc4)cc3)NC(=O)[C@H](Cc3ccc(C(=O)O)cc3)NC2=O)c1` [Example 2495] ({CH2CO}-[4Pal][Phe(4-COOH)]D[Phe(3-Me)][Phe(4-COOH)][Bip][Phe(4-COOH)][NMeA][dL][Dab][Cha][Val(3-OH)]EC[Dab][AEEA][AEEA][Aun]-OH; thioether N-14) yielded an IC50 of 0.107 µM. In the case of `Cc1cccc(C[C@@H]2NC(=O)[C@H](CC(=O)O)NC(=O)[C@H](Cc3ccc(C(=O)O)cc3)NC(=O)[C@H](C(C)O)NC(=O)CSC[C@@H](C(=O)N[C@@H](CCCN)C(=O)NCCOCCOCC(=O)NCCCCCCCCCCC(=O)O)NC(=O)[C@H](CCC(=O)O)NC(=O)[C@H](C(C)(C)O)NC(=O)[C@H](CC3CCCCC3)NC(=O)[C@H](CCN)NC(=O)[C@@H](CC(C)C)NC(=O)[C@H](C)N(C)C(=O)[C@H](Cc3ccc(C(=O)O)cc3)NC(=O)[C@H](Cc3ccc(-c4ccccc4)cc3)NC(=O)[C@H](Cc3ccc(C(=O)O)cc3)NC2=O)c1` (stereo partly drawn) [Example 2499] ({CH2CO}-[Thr(3ξ)][Phe(4-COOH)]D[Phe(3-Me)][Phe(4-COOH)][Bip][Phe(4-COOH)][NMeA][dL][Dab][Cha][Val(3-OH)]EC[Orn][AEEA][Aun]-OH; thioether N-14), the IC50 is reported as 0.078 µM.
